Measured values: the NIST ThermoML archive (doi:10.1021/acs.jced.5b00209)
Numbers after ± are expanded uncertainties.

Details: 101.33 kPa, Liquid; for viscosity: Capillary tube (Ostwald / Ubbelohde) method; for mass density: Pycnometric method

C[S+](C)[O-] [dimethyl sulfoxide]
Details	mass density [kg/m3]	viscosity [mPa·s]
298.15 K	1096.8 ± 0.5	2.01 ± 0.08
303.15 K	1091.4 ± 0.5	1.82 ± 0.07
308.15 K	1086.1 ± 0.5	1.65 ± 0.07
313.15 K	1081.2 ± 0.5	1.54 ± 0.06
318.15 K	1075.3 ± 0.6	1.37 ± 0.06
